Values joined by “and” are separate entries in the source; they are usually repeats but may differ in a detail not shown here. Equal entries are not always repeated. Inconclusive results and toxic doses are left out.
Tested on: L1210 leukemia ip in BDF1 mice, survival T/C
Assay: NCI In Vivo Anticancer Drug Screen. Data for tumor model L1210 Leukemia (intraperitoneal) in B6D2F1 (BDF1) mice
Details: endpoint: mean survival time, higher = longer survival
Procedure, shortened: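 Transplanted-tumor mice were given test agent; controls received vehicle only. Survival readings from the two groups were divided (treated over control).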

[1] = dose: 100.0 mg/kg/injection, schedule: Q04DX002 (ip), vehicle: Klucel (hydroxypropylcellulose) (HPC)
[2] = dose: 200.0 mg/kg/injection, schedule: Q04DX002 (ip), vehicle: Klucel (hydroxypropylcellulose) (HPC)
[3] = dose: 400.0 mg/kg/injection, schedule: Q04DX002 (ip), vehicle: Klucel (hydroxypropylcellulose) (HPC)
[4] = dose: 100.0 mg/kg/injection, schedule: Q01DX001 (ip), vehicle: saline
[5] = dose: 100.0 mg/kg/injection, schedule: Q01DX009 (ip), vehicle: Klucel (hydroxypropylcellulose) (HPC)
[6] = dose: 200.0 mg/kg/injection, schedule: Q01DX009 (ip), vehicle: Klucel (hydroxypropylcellulose) (HPC)
[7] = dose: 400.0 mg/kg/injection, schedule: Q01DX009 (ip), vehicle: Klucel (hydroxypropylcellulose) (HPC)
[8] = dose: 50.0 mg/kg/injection, schedule: Q01DX001 (ip), vehicle: saline
[9] = dose: 200.0 mg/kg/injection, schedule: Q01DX001 (ip), vehicle: saline
[10] = dose: 400.0 mg/kg/injection, schedule: Q01DX001 (ip), vehicle: saline
[11] = dose: 100.0 mg/kg/injection, schedule: Q01DX001 (ip), vehicle: Klucel (hydroxypropylcellulose) (HPC)
[12] = dose: 200.0 mg/kg/injection, schedule: Q01DX001 (ip), vehicle: Klucel (hydroxypropylcellulose) (HPC)
[13] = dose: 400.0 mg/kg/injection, schedule: Q01DX001 (ip), vehicle: Klucel (hydroxypropylcellulose) (HPC)
[14] = dose: 25.0 mg/kg/injection, schedule: Q04DX003 (ip), vehicle: saline
[15] = dose: 50.0 mg/kg/injection, schedule: Q04DX003 (ip), vehicle: saline
[16] = dose: 100.0 mg/kg/injection, schedule: Q04DX003 (ip), vehicle: saline with Tween-80
[17] = dose: 200.0 mg/kg/injection, schedule: Q04DX003 (ip), vehicle: saline with Tween-80
[18] = dose: 400.0 mg/kg/injection, schedule: Q04DX003 (ip), vehicle: saline with Tween-80

In the case of COC1OC(COS(=O)(=O)c2ccc(C)cc2)C(OC(=O)c2ccccc2)C(OC(=O)c2ccccc2)C1OS(=O)(=O)c1ccc(C)cc1 (stereo not given), the T/C (dose: 25.0 mg/kg/injection, schedule: Q04DX002 (ip), vehicle: Klucel (hydroxypropylcellulose) (HPC)) is reported as 88 % of control, the T/C (dose: 50.0 mg/kg/injection, schedule: Q04DX002 (ip), vehicle: Klucel (hydroxypropylcellulose) (HPC)) is reported as 95 % of control and the T/C [1] is reported as 88 % of control. For the same compound, the T/C [2] was 109 % of control and 88 % of control and the T/C [3] was 109 % of control.
With ClCCN(CC#CCCCC#CCN(CCCl)CCCl)CCCl the T/C [4] was 168 % of control.
Cc1ccc(NC(=O)Oc2ccccc2C(N)=O)cc1NC(=O)Oc1ccccc1C(N)=O was tested, and the T/C [5] was 93 % of control, the T/C [6] was 94 % of control and the T/C [7] was 89 % of control.
With Nc1ccc(I)cc1C(=O)O the T/C [8] was 103 % of control, the T/C [4] was 103 % of control and the T/C [9] was 101 % of control. For the same compound, the T/C [10] was 97 % of control.
CSc1nc(N)cc(NCc2ccccc2)n1 was tested, and the T/C (dose: 100.0 mg/kg/injection, schedule: Q01DX001 (ip), vehicle: saline with Tween-80) was 93 % of control, the T/C (dose: 200.0 mg/kg/injection, schedule: Q01DX001 (ip), vehicle: saline with Tween-80) was 95 % of control and the T/C (dose: 400.0 mg/kg/injection, schedule: Q01DX001 (ip), vehicle: saline with Tween-80) was 100 % of control.
For O=C(Nc1ccccc1C(F)(F)F)OCCOc1ccc(-c2ccccc2)cc1, the T/C [5] was 93 % of control, the T/C [6] was 91 % of control and the T/C [7] was 91 % of control.
COc1ccc(COC(=O)Nc2ccccc2Cl)cc1 was tested, and the T/C [5] was 91 % of control, the T/C [1] was 95 % of control and the T/C [6] was 96 % of control. The T/C [7] was 104 % of control and the T/C [3] was 95 % of control.
In the case of ClC1=C2C=CC=CC2C(Cl)(c2ccccc2)C2=C1C(Cl)=C1C=CC=CC1C2(Cl)c1ccccc1 (stereo not given), the T/C [11] is reported as 106 % of control, the T/C [12] is reported as 101 % of control and the T/C [13] is reported as 101 % of control.
In the case of O=C(C[n+]1cccc(CO)c1)c1ccccc1, the T/C (dose: 12.5 mg/kg/injection, schedule: Q04DX003 (ip), vehicle: saline) is reported as 102 % of control, the T/C [14] is reported as 103 % of control and the T/C [15] is reported as 100 % of control.
With COC(=O)C(C)(N)Cc1ccc(O)c(C)c1 (stereo not given) the T/C [5] was 96 % of control, the T/C (dose: 100.0 mg/kg/injection, schedule: Q04DX003 (ip), vehicle: Klucel (hydroxypropylcellulose) (HPC)) was 108 % of control and the T/C [6] was 100 % of control. The T/C (dose: 200.0 mg/kg/injection, schedule: Q04DX003 (ip), vehicle: Klucel (hydroxypropylcellulose) (HPC)) was 101 % of control and the T/C (dose: 400.0 mg/kg/injection, schedule: Q04DX003 (ip), vehicle: Klucel (hydroxypropylcellulose) (HPC)) was 95 % of control.
ClCCCC1(c2ccc(Oc3ccccc3)cc2)OCCO1 was tested, and the T/C (dose: 100.0 mg/kg/injection, schedule: Q01DX009 (ip), vehicle: saline with Tween-80) was 88 % of control, the T/C [16] was 105 % of control and the T/C (dose: 200.0 mg/kg/injection, schedule: Q01DX009 (ip), vehicle: saline with Tween-80) was 92 % of control. The T/C [17] was 95 % of control, the T/C (dose: 400.0 mg/kg/injection, schedule: Q01DX009 (ip), vehicle: saline with Tween-80) was 93 % of control and the T/C [18] was 94 % of control.
With CCCCNC(=O)C1C2C=CC(CC2)C1C(=O)NCCCC (stereo not given) the T/C [16] was 104 % of control, the T/C [17] was 100 % of control and the T/C [18] was 96 % of control.
In the case of CC(=O)c1ccccc1C(C)c1ccc(C)c2ccccc12 (stereo not given), the T/C [1] is reported as 120 % of control, the T/C [2] is reported as 97 % of control and the T/C [3] is reported as 104 % of control.
With N=C(N)SCCON1C(=O)c2ccccc2C1=O the T/C [8] was 102 % of control, the T/C [4] was 108 % of control and the T/C [9] was 112 % of control.
For CC(=O)OC(C)C(=O)Nc1ccccc1 (stereo not given), the T/C [11] was 93 % of control, the T/C [12] was 89 % of control and the T/C [13] was 96 % of control.
With Ic1cccc(/C=N/Nc2nnc(N/N=C/c3cccc(I)c3)c3ccccc23)c1 the T/C [8] was 102 % of control, the T/C [4] was 102 % of control and the T/C [9] was 102 % of control. The T/C [10] was 108 % of control.
In the case of O=C1C(=O)C(c2ccccc2)Oc2ccccc21 (stereo not given), the T/C [8] is reported as 89 % of control, the T/C [4] is reported as 101 % of control and the T/C [9] is reported as 98 % of control. The T/C [10] was 95 % of control.
For OCCOCCN1CCN(C(c2ccccc2)c2ccc(Cl)cc2)CC1 (stereo not given), the T/C (dose: 12.5 mg/kg/injection, schedule: Q01DX009 (ip), vehicle: saline) was 103 % of control, the T/C (dose: 25.0 mg/kg/injection, schedule: Q01DX009 (ip), vehicle: saline) was 103 % of control and the T/C [14] was 109 % of control. The T/C (dose: 50.0 mg/kg/injection, schedule: Q01DX009 (ip), vehicle: saline) was 103 % of control, the T/C [15] was 96 % of control and the T/C (dose: 100.0 mg/kg/injection, schedule: Q01DX009 (ip), vehicle: saline) was 103 % of control. The T/C (dose: 100.0 mg/kg/injection, schedule: Q04DX003 (ip), vehicle: saline) was 93 % of control and the T/C (dose: 200.0 mg/kg/injection, schedule: Q04DX003 (ip), vehicle: saline) was 90 % of control.
C[N+](C)(C)CC1CCCCC1 was tested, and the T/C (dose: 75.0 mg/kg/injection, schedule: Q01DX001 (ip), vehicle: saline) was 103 % of control.
In the case of CCN=C(c1ccc(NC(=O)c2ccc(C(=O)Nc3ccc(C(=NCC)N(CC)C(=O)OCC)cc3)cc2)cc1)N(CC)C(=O)OCC, the T/C (dose: 2.0 mg/kg/injection, schedule: Q01DX015 (ip), vehicle: methylcellulose (MC)) is reported as 101 % of control, the T/C (dose: 4.0 mg/kg/injection, schedule: Q01DX015 (ip), vehicle: methylcellulose (MC)) is reported as 104 % of control and the T/C (dose: 8.0 mg/kg/injection, schedule: Q01DX015 (ip), vehicle: methylcellulose (MC)) is reported as 97 % of control. The T/C (dose: 16.0 mg/kg/injection, schedule: Q01DX015 (ip), vehicle: methylcellulose (MC)) was 100 % of control, the T/C (dose: 31.0 mg/kg/injection, schedule: Q01DX015 (ip), vehicle: methylcellulose (MC)) was 102 % of control and the T/C (dose: 62.0 mg/kg/injection, schedule: Q01DX015 (ip), vehicle: methylcellulose (MC)) was 98 % of control. The T/C (dose: 125.0 mg/kg/injection, schedule: Q01DX015 (ip), vehicle: methylcellulose (MC)) was 96 % of control, the T/C (dose: 250.0 mg/kg/injection, schedule: Q01DX015 (ip), vehicle: methylcellulose (MC)) was 95 % of control and the T/C (dose: 375.0 mg/kg/injection, schedule: Q01DX015 (ip), vehicle: methylcellulose (MC)) was 91 % of control. For the same compound, the T/C (dose: 500.0 mg/kg/injection, schedule: Q01DX015 (ip), vehicle: methylcellulose (MC)) was 101 % of control.
With CCCC(=O)OC(OC(=O)CCC)c1ccco1 the T/C [4] was 92 % of control, the T/C [9] was 109 % of control and the T/C [10] was 109 % of control.
With CC1C/C(=N/NC(=O)OC(C)(C)C)CC(C)(C)C1 (stereo not given) the T/C (dose: 100.0 mg/kg/injection, schedule: Q01DX009 (ip), vehicle: gum acacia) was 96 % of control, the T/C (dose: 200.0 mg/kg/injection, schedule: Q01DX009 (ip), vehicle: gum acacia) was 89 % of control and the T/C (dose: 400.0 mg/kg/injection, schedule: Q01DX009 (ip), vehicle: gum acacia) was 87 % of control.
In the case of O=[N+]([O-])c1cc([N+](=O)[O-])c(Br)cc1F, the T/C (dose: 2.5 mg/kg/injection, schedule: Q01DX009 (ip), vehicle: Klucel (hydroxypropylcellulose) (HPC)) is reported as 92 % of control and the T/C (dose: 5.0 mg/kg/injection, schedule: Q01DX009 (ip), vehicle: Klucel (hydroxypropylcellulose) (HPC)) is reported as 99 % of control.
With C[N+](C)=C(Cl)Cl the T/C [4] was 97 % of control, the T/C [9] was 97 % of control and the T/C [10] was 95 % of control.
For Cc1ccc(S(=O)(=O)N(CCCc2c(C)nc(N)[nH]c2=O)Cc2ccc(N)cc2)cc1, the T/C [1] was 91 % of control, the T/C [2] was 88 % of control and the T/C [3] was 112 % of control.
CCC(C(O)c1ccccc1)[N+](=O)[O-] (stereo not given) was tested, and the T/C (dose: 100.0 mg/kg/injection, schedule: Q04DX003 (ip), vehicle: other) was 100 % of control, the T/C (dose: 200.0 mg/kg/injection, schedule: Q04DX003 (ip), vehicle: other) was 100 % of control and the T/C (dose: 400.0 mg/kg/injection, schedule: Q04DX003 (ip), vehicle: other) was 96 % of control.
In the case of Cc1cc[n+]([O-])nc1N(C)N, the T/C (dose: 50.0 mg/kg/injection, schedule: Q04DX002 (ip), vehicle: saline) is reported as 101 % of control, the T/C (dose: 100.0 mg/kg/injection, schedule: Q04DX002 (ip), vehicle: saline) is reported as 104 % of control and the T/C (dose: 200.0 mg/kg/injection, schedule: Q04DX002 (ip), vehicle: saline) is reported as 96 % of control.

Source: PubChem BioAssay AID248 (DTP/NCI, 2004)
